Laboratory results published in publication PMC4513132, “Oxidation of Monolignols by Members of the Berberine Bridge Enzyme Family Suggests a Role in Plant Cell Wall Metabolism” (The Journal of Biological Chemistry, 2015).

What was measured:
AtBBE-like 15 [1] = target: T1, AtBBE-like 15 (Arabidopsis thaliana, UniProt O64743); assay: X-ray crystal structure, […] Å; type: binding; conditions: covalent (bicovalent: His-115 to 8α-methyl, Cys-179 to C6)
T1 construct: gene MEE23; secreted by Komagataella pastoris (codon-optimised synthetic gene); crystallised as 27-532; bicovalent FAD (His-115, Cys-179)

AtBBE-like 13 = target: T2, AtBBE-like 13 (Arabidopsis thaliana, UniProt Q93ZA3); assay: stopped-flow reductive half-reaction, flavin absorbance at […] nm; type: biochemical; conditions: 50 mM potassium phosphate pH 7.0, 25 °C, anoxic
T2 construct: gene At1g30760; isolated from Komagataella pastoris cells (codon-optimised synthetic gene)

AtBBE-like 15 [2] = target: T1, AtBBE-like 15; assay: as above; type: biochemical; conditions: 50 mM potassium phosphate pH 7.0, 25 °C, anoxic
AtBBE-like 15 [3] = target: T1, AtBBE-like 15; assay: Thermofluor, SYPRO Orange; type: binding; conditions: 50 mM MES pH 7.0, 2 mg/ml ligand

T1 sequence (O64743 27-532): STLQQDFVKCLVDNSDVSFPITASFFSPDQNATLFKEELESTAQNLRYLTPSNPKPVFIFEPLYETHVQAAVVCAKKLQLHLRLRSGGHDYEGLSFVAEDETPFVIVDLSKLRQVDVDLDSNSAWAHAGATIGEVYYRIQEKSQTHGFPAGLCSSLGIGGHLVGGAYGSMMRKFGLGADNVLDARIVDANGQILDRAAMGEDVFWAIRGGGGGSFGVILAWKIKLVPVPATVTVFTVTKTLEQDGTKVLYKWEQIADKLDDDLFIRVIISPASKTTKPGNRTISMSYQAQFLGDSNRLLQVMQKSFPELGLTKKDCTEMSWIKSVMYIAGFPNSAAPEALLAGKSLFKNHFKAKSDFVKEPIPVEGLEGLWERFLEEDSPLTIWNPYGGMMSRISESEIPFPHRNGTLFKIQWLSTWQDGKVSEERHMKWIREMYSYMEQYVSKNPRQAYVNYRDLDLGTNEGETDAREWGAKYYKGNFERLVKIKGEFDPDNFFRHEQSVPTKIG
T2 sequence (Q93ZA3 31-534): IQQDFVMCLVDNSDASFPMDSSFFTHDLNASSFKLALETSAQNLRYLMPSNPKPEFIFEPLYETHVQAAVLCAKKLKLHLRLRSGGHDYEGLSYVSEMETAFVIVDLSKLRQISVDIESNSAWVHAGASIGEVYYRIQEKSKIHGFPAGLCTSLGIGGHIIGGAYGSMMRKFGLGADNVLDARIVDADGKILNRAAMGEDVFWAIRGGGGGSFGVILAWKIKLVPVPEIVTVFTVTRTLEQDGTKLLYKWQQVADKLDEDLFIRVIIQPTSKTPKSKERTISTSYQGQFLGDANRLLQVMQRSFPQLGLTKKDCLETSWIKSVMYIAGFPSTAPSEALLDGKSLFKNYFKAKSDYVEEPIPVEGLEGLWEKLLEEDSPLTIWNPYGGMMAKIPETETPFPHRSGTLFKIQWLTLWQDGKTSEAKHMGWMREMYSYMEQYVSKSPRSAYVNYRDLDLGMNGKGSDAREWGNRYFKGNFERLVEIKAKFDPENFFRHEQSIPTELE

| SMILES | X-ray crystal structure, 2.1 Å (AtBBE-like 15 [1]) | Kd (AtBBE-like 13) | Kd (AtBBE-like 15 [2]) | increase of the melting temperature (AtBBE-like 15 [3]) |
| --- | --- | --- | --- | --- |
| Cc1cc2nc3c(=O)[nH]c(=O)nc-3n(C[C@H](O)[C@H](O)[C@H](O)COP(=O)(O)OP(=O)(O)OC[C@H]3O[C@@H](n4cnc5c(N)ncnc54)[C@H](O)[C@@H]3O)c2cc1C [FAD] | The FAD cofactor is bicovalently linked to the peptide chain | – | – | – |
| COc1cc(/C=C/CO)ccc1O[C@@H]1O[C@H](CO)[C@@H](O)[C@H](O)[C@H]1O [coniferin] | – | 1.86 ± 0.624 mM | 660 ± 100 µM | – |
| OC/C=C/c1ccc(O)cc1 [p-coumaryl alcohol] | – | 0.867 ± 0.123 mM | 700 ± 120 µM | – |
| OC[C@H]1OC(O)[C@H](O)[C@@H](O)[C@@H]1O (stereo partly drawn) [D-glucose] | – | – | – | monosaccharides, such as D-glucose, had such a profound effect on the protein's thermal stability |
